Source: PubChem BioAssay (NCI)
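Growth conditions: 96-well plates. Treatment: test compound, 48 hours, 5 concentrations. Analysis: linear interpolation between bracketing concentrations; unreached endpoints set to highest concentration. The concentration for 50% growth inhibition is given as GI50. TGI: concentration producing complete growth inhibition.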

Tests used:
Test in all cases: DTP human tumour cell line panel, 48 h
786-0 renal = test system: 786-0 renal
A498 renal = test system: A498 renal
A549 NSCLC = test system: A549 NSCLC
ACHN renal = test system: ACHN renal
BT-549 breast = test system: BT-549 breast
CAKI-1 renal = test system: CAKI-1 renal
CCRF-CEM leukemia = test system: CCRF-CEM leukemia
COLO 205 colon = test system: COLO 205 colon
DU-145 prostate = test system: DU-145 prostate
EKVX NSCLC = test system: EKVX NSCLC
HCC-2998 colon = test system: HCC-2998 colon
HCT-116 colon = test system: HCT-116 colon
HCT-15 colon = test system: HCT-15 colon
HL-60(TB) leukemia = test system: HL-60(TB) leukemia
HOP-62 NSCLC = test system: HOP-62 NSCLC
HOP-92 NSCLC = test system: HOP-92 NSCLC
HS 578T breast = test system: HS 578T breast
HT29 colon = test system: HT29 colon
IGROV1 ovarian = test system: IGROV1 ovarian
K-562 leukemia = test system: K-562 leukemia
KM12 colon = test system: KM12 colon
LOX IMVI melanoma = test system: LOX IMVI melanoma
M14 melanoma = test system: M14 melanoma
MALME-3M melanoma = test system: MALME-3M melanoma
MCF7 breast = test system: MCF7 breast
MDA-MB-231 breast = test system: MDA-MB-231 breast
MDA-MB-435 = test system: MDA-MB-435
MOLT-4 leukemia = test system: MOLT-4 leukemia
NCI-H226 lung = test system: NCI-H226 lung
NCI-H23 lung = test system: NCI-H23 lung
NCI-H460 lung = test system: NCI-H460 lung
NCI-H522 lung = test system: NCI-H522 lung
NCI/ADR-RES ovarian = test system: NCI/ADR-RES ovarian
OVCAR-3 ovarian = test system: OVCAR-3 ovarian
OVCAR-4 ovarian = test system: OVCAR-4 ovarian
OVCAR-5 ovarian = test system: OVCAR-5 ovarian
OVCAR-8 ovarian = test system: OVCAR-8 ovarian
PC-3 prostate = test system: PC-3 prostate
RPMI-8226 leukemia = test system: RPMI-8226 leukemia
SF-268 CNS = test system: SF-268 CNS
SF-295 CNS = test system: SF-295 CNS
SF-539 CNS = test system: SF-539 CNS
SK-MEL-2 melanoma = test system: SK-MEL-2 melanoma
SK-MEL-28 melanoma = test system: SK-MEL-28 melanoma
SK-MEL-5 melanoma = test system: SK-MEL-5 melanoma
SK-OV-3 ovarian = test system: SK-OV-3 ovarian
SN12C renal = test system: SN12C renal
SNB-19 CNS = test system: SNB-19 CNS
SNB-75 CNS = test system: SNB-75 CNS
SR leukemia = test system: SR leukemia
SW-620 colon = test system: SW-620 colon
T-47D breast = test system: T-47D breast
TK-10 renal = test system: TK-10 renal
U251 CNS = test system: U251 CNS
UACC-257 melanoma = test system: UACC-257 melanoma
UACC-62 melanoma = test system: UACC-62 melanoma
UO-31 renal = test system: UO-31 renal

For `COc1ccc2c(c1)C(c1cc(OC)c3c(c1)OCO3)C1=C(COC1=O)N2` (configuration not stated), the GI50 (786-0 renal) was 469 nM, the TGI (786-0 renal) was > 36000 nM and the GI50 (A498 renal) was 105 nM. For the same compound, the TGI (A498 renal) was 1480 nM, the GI50 (A549 NSCLC) was 445 nM and the TGI (A549 NSCLC) was > 100000 nM. For the same compound, the GI50 (ACHN renal) was 1570 nM, the TGI (ACHN renal) was > 100000 nM and the GI50 (BT-549 breast) was 2080 nM. For the same compound, the TGI (BT-549 breast) was > 100000 nM, the GI50 (CAKI-1 renal) was 769 nM and the TGI (CAKI-1 renal) was > 100000 nM. The GI50 (CCRF-CEM leukemia) was 382 nM, the TGI (CCRF-CEM leukemia) was > 100000 nM and the GI50 (COLO 205 colon) was 277 nM. The TGI (COLO 205 colon) was 713 nM, the GI50 (DU-145 prostate) was 397 nM and the TGI (DU-145 prostate) was 3160 nM. For the same compound, the GI50 (EKVX NSCLC) was 3440 nM, the TGI (EKVX NSCLC) was > 100000 nM and the GI50 (HCC-2998 colon) was 432 nM. For the same compound, the GI50 (HCT-116 colon) was 417 nM, the TGI (HCT-116 colon) was > 34800 nM and the GI50 (HCT-15 colon) was 472 nM. For the same compound, the TGI (HCT-15 colon) was > 65100 nM, the GI50 (HL-60(TB) leukemia) was 285 nM and the TGI (HL-60(TB) leukemia) was 1070 nM. For the same compound, the GI50 (HOP-62 NSCLC) was 397 nM, the TGI (HOP-62 NSCLC) was > 47500 nM and the GI50 (HOP-92 NSCLC) was 23300 nM. The TGI (HOP-92 NSCLC) was > 100000 nM, the GI50 (HS 578T breast) was 214 nM and the TGI (HS 578T breast) was > 79400 nM. For the same compound, the GI50 (HT29 colon) was 325 nM, the GI50 (IGROV1 ovarian) was 687 nM and the TGI (IGROV1 ovarian) was > 84500 nM. The GI50 (K-562 leukemia) was 264 nM, the TGI (K-562 leukemia) was > 100000 nM and the GI50 (KM12 colon) was 227 nM. The TGI (KM12 colon) was 3250 nM, the GI50 (LOX IMVI melanoma) was 660 nM and the TGI (LOX IMVI melanoma) was > 100000 nM. The GI50 (M14 melanoma) was 233 nM, the TGI (M14 melanoma) was 742 nM and the TGI (MALME-3M melanoma) was > 100000 nM. For the same compound, the GI50 (MCF7 breast) was 261 nM, the TGI (MCF7 breast) was 27300 nM and the GI50 (MDA-MB-231 breast) was 654 nM. The TGI (MDA-MB-231 breast) was > 39800 nM, the GI50 (MDA-MB-435) was 49 nM and the TGI (MDA-MB-435) was 287 nM. The GI50 (MOLT-4 leukemia) was 510 nM, the TGI (MOLT-4 leukemia) was > 100000 nM and the GI50 (NCI-H226 lung) was 389 nM. For the same compound, the TGI (NCI-H226 lung) was 4800 nM, the GI50 (NCI-H23 lung) was 346 nM and the TGI (NCI-H23 lung) was > 64900 nM. The GI50 (NCI-H460 lung) was 348 nM, the TGI (NCI-H460 lung) was > 20400 nM and the GI50 (NCI-H522 lung) was 39 nM. It also gave a TGI (NCI-H522 lung) of 232 nM, a GI50 (NCI/ADR-RES ovarian) of 292 nM and a GI50 (OVCAR-3 ovarian) of 205 nM. For the same compound, the TGI (OVCAR-3 ovarian) was 481 nM, the GI50 (OVCAR-4 ovarian) was 1280 nM and the TGI (OVCAR-4 ovarian) was > 100000 nM. For the same compound, the GI50 (OVCAR-5 ovarian) was 629 nM, the TGI (OVCAR-5 ovarian) was > 100000 nM and the GI50 (OVCAR-8 ovarian) was 504 nM. The TGI (OVCAR-8 ovarian) was > 40700 nM, the GI50 (PC-3 prostate) was 356 nM and the TGI (PC-3 prostate) was > 100000 nM. The GI50 (RPMI-8226 leukemia) was 461 nM, the TGI (RPMI-8226 leukemia) was > 100000 nM and the GI50 (SF-268 CNS) was 691 nM. The TGI (SF-268 CNS) was > 89200 nM, the GI50 (SF-295 CNS) was 91.9 nM and the TGI (SF-295 CNS) was > 34000 nM. For the same compound, the GI50 (SF-539 CNS) was 318 nM, the GI50 (SK-MEL-2 melanoma) was 347 nM and the TGI (SK-MEL-2 melanoma) was > 44800 nM. For the same compound, the GI50 (SK-MEL-28 melanoma) was 360 nM, the TGI (SK-MEL-28 melanoma) was > 100000 nM and the GI50 (SK-MEL-5 melanoma) was 262 nM. It also gave a TGI (SK-MEL-5 melanoma) of 1900 nM, a GI50 (SK-OV-3 ovarian) of 305 nM and a TGI (SK-OV-3 ovarian) of 7360 nM. The GI50 (SN12C renal) was 684 nM, the TGI (SN12C renal) was > 100000 nM and the GI50 (SNB-19 CNS) was 468 nM. The TGI (SNB-19 CNS) was > 100000 nM, the GI50 (SNB-75 CNS) was 381 nM and the TGI (SNB-75 CNS) was 37600 nM. For the same compound, the GI50 (SR leukemia) was 183 nM, the TGI (SR leukemia) was > 100000 nM and the GI50 (SW-620 colon) was 373 nM. The TGI (SW-620 colon) was > 100000 nM, the GI50 (T-47D breast) was 6670 nM and the TGI (T-47D breast) was > 100000 nM. The TGI (TK-10 renal) was > 77200 nM, the GI50 (U251 CNS) was 419 nM and the TGI (U251 CNS) was > 47900 nM. For the same compound, the TGI (UACC-257 melanoma) was > 100000 nM, the GI50 (UACC-62 melanoma) was 98.4 nM and the TGI (UACC-62 melanoma) was > 100000 nM. The GI50 (UO-31 renal) was 5050 nM and the TGI (UO-31 renal) was > 100000 nM.
